According to US20260364214A1, “MULTIVALENT FIBROBLAST ACTIVATION PROTEIN LIGANDS FOR TARGETED DELIVERY APPLICATIONS” (Philochem AG, priority 2022, published 2026):

Columns and labels:
recombinant hFAP = target: T1, recombinant hFAP (Homo sapiens, UniProt Q12884); assay: hFAP inhibition assay (Z-Gly-Pro-AMC substrate); type: biochemical
T1 sequence (Q12884 26-760 limits assumed): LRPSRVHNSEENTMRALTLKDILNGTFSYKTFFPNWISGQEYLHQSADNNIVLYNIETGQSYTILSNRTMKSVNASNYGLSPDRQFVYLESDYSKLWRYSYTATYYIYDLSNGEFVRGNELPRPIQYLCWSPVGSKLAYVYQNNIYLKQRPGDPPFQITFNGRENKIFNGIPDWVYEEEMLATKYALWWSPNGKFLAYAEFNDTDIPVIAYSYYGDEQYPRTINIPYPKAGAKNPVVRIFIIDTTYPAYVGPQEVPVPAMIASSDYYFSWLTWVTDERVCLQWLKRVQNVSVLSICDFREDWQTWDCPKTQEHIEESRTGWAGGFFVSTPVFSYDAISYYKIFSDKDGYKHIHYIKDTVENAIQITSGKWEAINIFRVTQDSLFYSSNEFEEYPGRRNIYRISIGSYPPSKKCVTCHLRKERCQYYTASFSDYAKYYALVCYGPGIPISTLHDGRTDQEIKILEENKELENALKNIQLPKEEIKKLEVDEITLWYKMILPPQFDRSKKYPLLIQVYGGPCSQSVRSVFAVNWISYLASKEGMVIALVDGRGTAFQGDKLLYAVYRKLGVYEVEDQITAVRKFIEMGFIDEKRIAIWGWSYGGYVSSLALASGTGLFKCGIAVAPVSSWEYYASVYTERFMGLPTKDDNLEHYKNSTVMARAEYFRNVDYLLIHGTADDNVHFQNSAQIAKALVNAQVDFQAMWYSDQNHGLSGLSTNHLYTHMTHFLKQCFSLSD
Protocol: (§1) Enzymatic activity of hFAP on the Z-Gly-Pro-AMC substrate was measured at room temperature on a microtiter plate reader, monitoring the fluorescence at an excitation wavelength of 360 nm and an emission wavelength of 465 nm. The reaction mixture contained substrate (20 μM), protein (66 μM, constant), assay buffer (50 mM Tris, 100 mM NaCl, and 1 mM EDTA, pH=7.4), and inhibitors with serial dilution from 167 nM to 80 fM, 1:2 in a total volume of 20 μL. Experiments were performed in triplicate, and the mean fluorescence values were fitted using Prism 7. The value is defined as the concentration of inhibitor required to reduce the enzyme activity by 50% after addition of the substrate [FIG. 1 and FIG. 8].
According to the same procedure, further comparative inhibition assays with trimeric binders having inter alia different lengths of linker group B and/or different payload groups C were performed with compounds Tri-ESV6-ValCit-MMAE (14), Tri-ESV6-linker-DOTAGA (13) and diastereoisomers of Tri-ESV6-DOTAGA (11, 12) [FIG. 18]. Comparative hFAP inhibition assays with tetravalent binders 10 and 29 were also performed [FIG. 20].
as §1, with “substrate.” for “substrate [FIG. 1 and FIG. 8].”
as §1, with “e) Inhibition assay with Tri-ESV6-DOTAGA, Tetra-ESV6-DOTAGA, Hexa-ESV6-DOTAGA, Octa-ESV6-DOTAGA, ESV6-L-DOTAGA and BI-ESV6-L-DOTAGA. Enzymatic” for “Enzymatic”, “substrate.” for “substrate [FIG. 1 and FIG. 8].”

SK-RC-52.hFAP tumors = assay: Dose escalation / dose optimization for radiotherapeutic applications; type: in vivo, mouse (female athymic Balb/c AnNRj-Foxn1); conditions: 24 h
Protocol: Prior to the dose optimization study for radiotherapeutic applications, precursors (0.24 to 180 nmol) were dissolved in milliQ water and diluted with sodium acetate (1 M in water, pH=4.5). ^177Lu solution (4 MBq) were added and the mixture was heated at 90 °C for 10 minutes, followed by dilution with PBS to achieve final volume of 400 μL (4 doses of 100 μL each).
Female athymic Balb/c AnNRj-Foxn1 mice bearing subcutis SK-RC-52.hFAP tumors were injected intravenously with eight different doses of ^177Lu-Tri-ESV6-DOTAGA ranging from 3 nmol/kg to 2250 nmol/kg. The mice were sacrificed after 24 h and tumor and healthy organs were harvested and measured with a gamma counter. Since the best tumor to organ ratios are obtained with high doses ranging between 90 and 250 nmol/kg, we anticipate that the ideal dose in human patients for radiotherapeutic applications will be between 1 and 3 milligram per patient. e) Therapeutic efficacy evaluation in tumor bearing mice in dose escalation and in combination with L19-IL2

IC50 (recombinant hFAP; Z-Gly-Pro-AMC 20 μM, protein 66 μM, pH 7.4, room temperature)	lower IC50 compared to Tri-ESV6-PEG12-DOTAGA (recombinant hFAP; vs Tri-ESV6-PEG12-DOTAGA)	improvement in IC50 as compared to Bi-ESV6-DOTAGA (recombinant hFAP; vs bivalent Bi-ESV6-DOTAGA)	improvement in IC50 as compared to ESV6-DOTAGA (recombinant hFAP; vs monovalent ESV6-DOTAGA)	SMILES	IC50 / inhibitory activity, comparison in words (recombinant hFAP; recombinant hFAP)	% ID/g in tumor, in words (SK-RC-52.hFAP tumors; highest doses (>90 nmol/kg))	uptake in healthy organs, in words (SK-RC-52.hFAP tumors; lowest doses (<10 nmol/kg))
0.012 nM	~ 1000 fold	10 fold	43 fold	N#C[C@@H]1CC(F)(F)CN1C(=O)CNC(=O)c1ccnc2c(NC(=O)CCC(=O)NCCNC(=O)CCOCC(COCCC(=O)NCCNC(=O)CCC(=O)Nc3cccc4c(C(=O)NCC(=O)N5CC(F)(F)C[C@H]5C#N)ccnc34)(COCCC(=O)NCCNC(=O)CCC(=O)Nc3cccc4c(C(=O)NCC(=O)N5CC(F)(F)C[C@H]5C#N)ccnc34)NC(=O)CCC(C(=O)O)N3CCN(CC(=O)O)CCN(CC(=O)O)CCN(CC(=O)O)CC3)cccc12 (stereo partly drawn) [Tri-ESV6-DOTAGA, 2,2′,2″-(10-(19-carboxy-1-((4-((2-((S)-2-cyano-4,4-difluoropyrrolidin-1-yl)-2-oxoethyl)carbamoyl)quinolin-8-yl)amino)-14,14-bis((3-((2-(4-((4-((2-((S)-2-cyano-4,4-difluoropyrrolidin-1-yl)-2-oxoethyl)carbamoyl)quinolin-8-yl)amino)-4-oxobutanamido)ethyl)amino)-3-oxopropoxy)methyl)-1,4,9,16-tetraoxo-12-oxa-5,8,15-triazanonadecan-19-yl)-1,4,7,10-tetraazacyclododecane-1,4,7-triyl)triacetic acid]	remarkably lower IC50 compared to ESV6-DOTAGA, Bi-ESV6-DOTAGA and FAP-2286		
				N#CC1CC(F)(F)CN1C(=O)CNC(=O)c1ccnc2c(NC(=O)CCC(=O)NCCNC(=O)CCOCC(COCCC(=O)NCCNC(=O)CCC(=O)Nc3cccc4c(C(=O)NCC(=O)N5CC(F)(F)CC5C#N)ccnc34)(COCCC(=O)NCCNC(=O)CCC(=O)Nc3cccc4c(C(=O)NCC(=O)N5CC(F)(F)CC5C#N)ccnc34)NC(=O)CCC(C(=O)O)N3CCN(CC(=O)[O-])CCN(CC(=O)[O-])CCN(CC(=O)[O-])CC3)cccc12.[177Lu+3] (stereo not shown) [^177Lu-Tri-ESV6-DOTAGA]		drops	partially uptaken in healthy organs
